Assay results as given in ChEMBL document CHEMBL3991601, “The target landscape of clinical kinase drugs” (Science, 2017).
Calls of active or inactive are those of the source. For most assays here, no stated cut-off is given here; in the data, actives have a measured Kd and inactives only a lower limit.

molecular target: T1, Receptor-type tyrosine-protein kinase FLT3 (Homo sapiens, UniProt P36888)
T1 sequence (P36888 whole entry): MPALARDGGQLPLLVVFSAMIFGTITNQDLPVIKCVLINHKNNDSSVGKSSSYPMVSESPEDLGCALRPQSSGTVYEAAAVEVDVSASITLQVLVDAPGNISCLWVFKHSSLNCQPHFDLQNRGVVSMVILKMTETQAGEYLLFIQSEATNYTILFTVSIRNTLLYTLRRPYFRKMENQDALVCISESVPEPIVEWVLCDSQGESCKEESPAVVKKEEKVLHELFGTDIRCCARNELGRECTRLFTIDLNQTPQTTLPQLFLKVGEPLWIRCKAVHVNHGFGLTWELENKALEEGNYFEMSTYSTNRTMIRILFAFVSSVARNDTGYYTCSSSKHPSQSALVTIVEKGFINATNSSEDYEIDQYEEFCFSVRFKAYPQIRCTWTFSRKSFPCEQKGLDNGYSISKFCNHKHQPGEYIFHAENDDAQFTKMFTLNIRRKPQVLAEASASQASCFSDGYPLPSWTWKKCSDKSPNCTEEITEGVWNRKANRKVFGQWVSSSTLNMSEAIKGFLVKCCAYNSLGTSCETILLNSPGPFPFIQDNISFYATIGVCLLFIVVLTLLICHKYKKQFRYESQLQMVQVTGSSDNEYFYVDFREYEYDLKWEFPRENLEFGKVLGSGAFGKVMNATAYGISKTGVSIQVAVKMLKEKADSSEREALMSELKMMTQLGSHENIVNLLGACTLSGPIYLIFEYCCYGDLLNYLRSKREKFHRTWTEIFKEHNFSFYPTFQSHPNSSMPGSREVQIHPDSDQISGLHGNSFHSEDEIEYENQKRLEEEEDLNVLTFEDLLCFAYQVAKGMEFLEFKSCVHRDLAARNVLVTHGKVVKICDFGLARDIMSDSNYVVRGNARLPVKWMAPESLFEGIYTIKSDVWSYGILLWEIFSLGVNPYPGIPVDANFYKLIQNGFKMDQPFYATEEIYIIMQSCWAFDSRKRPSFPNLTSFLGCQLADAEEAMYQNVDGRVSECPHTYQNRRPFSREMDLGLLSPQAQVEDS

Structure (SMILES)	Kd
Cn1cc(-c2ccc3nnc(C(F)(F)c4ccc5ncccc5c4)n3n2)cn1 [JNJ-38877605]	> 30 µM (inactive)
COC(=O)[C@@]1(O)C[C@H]2O[C@]1(C)n1c3ccccc3c3c4c(c5c6ccccc6n2c5c31)C(=O)NC4 [K-252A]	0.227 µM (active)
Cc1c(F)cc(C(=O)NC2CC2)cc1-c1ccc(C(=O)NCC(C)(C)C)cn1 [LOSMAPIMOD]	> 30 µM (inactive)
Cn1cc(-c2ccc(F)c(C(F)(F)F)c2)nc1C1CCN(c2ncnc3[nH]ncc23)CC1 [LY-2584702]	> 30 µM (inactive)
O=C(O)[C@]1(Cc2cccc(Nc3nccs3)n2)CC[C@@H](Oc2cccc(Cl)c2F)CC1 [MK-5108]	> 30 µM (inactive)
Cc1ccc(-n2nc(C(C)(C)C)cc2NC(=O)NCc2cc(F)ccc2Oc2ccc3c(cnn3CCO)c2)cc1 [PEXMETINIB]	> 30 µM (inactive)
CNC(=O)c1ccc(C)c(-n2c(C)cc(OCc3ccc(F)cc3F)c(Br)c2=O)c1 [PH-797804]	> 30 µM (inactive)
C=CC(=O)N1CCC(Oc2cc3c(Nc4ccc(Cl)c(Cl)c4F)ncnc3cc2OC)CC1 [POZIOTINIB]	> 30 µM (inactive)
CN(C)C(=O)c1cc2cnc(Nc3ccc(N4CCNCC4)cn3)nc2n1C1CCCC1 [RIBOCICLIB]	> 30 µM (inactive)

molecular target: Mitogen-activated protein kinase kinase kinase kinase 1 (Homo sapiens, UniProt Q92918)
Sequence (Q92918 whole entry): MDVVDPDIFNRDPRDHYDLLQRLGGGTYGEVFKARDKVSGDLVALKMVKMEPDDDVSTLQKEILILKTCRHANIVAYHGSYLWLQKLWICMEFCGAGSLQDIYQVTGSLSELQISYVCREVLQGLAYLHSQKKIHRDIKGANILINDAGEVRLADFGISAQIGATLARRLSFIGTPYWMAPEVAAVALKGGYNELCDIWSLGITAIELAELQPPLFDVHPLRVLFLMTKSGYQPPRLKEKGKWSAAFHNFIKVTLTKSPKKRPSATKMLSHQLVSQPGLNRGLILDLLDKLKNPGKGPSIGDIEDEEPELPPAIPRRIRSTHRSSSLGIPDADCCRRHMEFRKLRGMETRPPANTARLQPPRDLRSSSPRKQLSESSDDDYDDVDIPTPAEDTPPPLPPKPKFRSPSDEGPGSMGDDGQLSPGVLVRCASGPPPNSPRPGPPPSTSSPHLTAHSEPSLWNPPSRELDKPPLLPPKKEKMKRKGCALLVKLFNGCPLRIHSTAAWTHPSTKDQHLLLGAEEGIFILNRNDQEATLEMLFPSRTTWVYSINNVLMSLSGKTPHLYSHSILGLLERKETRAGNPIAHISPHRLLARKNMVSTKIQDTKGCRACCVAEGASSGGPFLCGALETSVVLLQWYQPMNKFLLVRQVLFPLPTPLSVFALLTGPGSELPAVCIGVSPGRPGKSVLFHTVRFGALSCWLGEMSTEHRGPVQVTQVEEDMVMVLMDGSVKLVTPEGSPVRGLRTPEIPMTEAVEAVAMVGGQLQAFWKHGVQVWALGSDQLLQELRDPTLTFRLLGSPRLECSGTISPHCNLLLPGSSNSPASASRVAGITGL

Structure (SMILES)	Kd
Cn1cc(-c2ccc3nnc(C(F)(F)c4ccc5ncccc5c4)n3n2)cn1 [JNJ-38877605]	> 30 µM (inactive)
COC(=O)[C@@]1(O)C[C@H]2O[C@]1(C)n1c3ccccc3c3c4c(c5c6ccccc6n2c5c31)C(=O)NC4 [K-252A]	0.452 µM (active)
Cc1c(F)cc(C(=O)NC2CC2)cc1-c1ccc(C(=O)NCC(C)(C)C)cn1 [LOSMAPIMOD]	> 30 µM (inactive)
Cn1cc(-c2ccc(F)c(C(F)(F)F)c2)nc1C1CCN(c2ncnc3[nH]ncc23)CC1 [LY-2584702]	> 30 µM (inactive)
O=C(O)[C@]1(Cc2cccc(Nc3nccs3)n2)CC[C@@H](Oc2cccc(Cl)c2F)CC1 [MK-5108]	> 30 µM (inactive)
Cc1ccc(-n2nc(C(C)(C)C)cc2NC(=O)NCc2cc(F)ccc2Oc2ccc3c(cnn3CCO)c2)cc1 [PEXMETINIB]	> 30 µM (inactive)
CNC(=O)c1ccc(C)c(-n2c(C)cc(OCc3ccc(F)cc3F)c(Br)c2=O)c1 [PH-797804]	> 30 µM (inactive)
C=CC(=O)N1CCC(Oc2cc3c(Nc4ccc(Cl)c(Cl)c4F)ncnc3cc2OC)CC1 [POZIOTINIB]	> 30 µM (inactive)
CN(C)C(=O)c1cc2cnc(Nc3ccc(N4CCNCC4)cn3)nc2n1C1CCCC1 [RIBOCICLIB]	> 30 µM (inactive)

molecular target: T2, Mitogen-activated protein kinase kinase kinase kinase 3 (Homo sapiens, UniProt Q8IVH8)
T2 sequence (Q8IVH8 whole entry): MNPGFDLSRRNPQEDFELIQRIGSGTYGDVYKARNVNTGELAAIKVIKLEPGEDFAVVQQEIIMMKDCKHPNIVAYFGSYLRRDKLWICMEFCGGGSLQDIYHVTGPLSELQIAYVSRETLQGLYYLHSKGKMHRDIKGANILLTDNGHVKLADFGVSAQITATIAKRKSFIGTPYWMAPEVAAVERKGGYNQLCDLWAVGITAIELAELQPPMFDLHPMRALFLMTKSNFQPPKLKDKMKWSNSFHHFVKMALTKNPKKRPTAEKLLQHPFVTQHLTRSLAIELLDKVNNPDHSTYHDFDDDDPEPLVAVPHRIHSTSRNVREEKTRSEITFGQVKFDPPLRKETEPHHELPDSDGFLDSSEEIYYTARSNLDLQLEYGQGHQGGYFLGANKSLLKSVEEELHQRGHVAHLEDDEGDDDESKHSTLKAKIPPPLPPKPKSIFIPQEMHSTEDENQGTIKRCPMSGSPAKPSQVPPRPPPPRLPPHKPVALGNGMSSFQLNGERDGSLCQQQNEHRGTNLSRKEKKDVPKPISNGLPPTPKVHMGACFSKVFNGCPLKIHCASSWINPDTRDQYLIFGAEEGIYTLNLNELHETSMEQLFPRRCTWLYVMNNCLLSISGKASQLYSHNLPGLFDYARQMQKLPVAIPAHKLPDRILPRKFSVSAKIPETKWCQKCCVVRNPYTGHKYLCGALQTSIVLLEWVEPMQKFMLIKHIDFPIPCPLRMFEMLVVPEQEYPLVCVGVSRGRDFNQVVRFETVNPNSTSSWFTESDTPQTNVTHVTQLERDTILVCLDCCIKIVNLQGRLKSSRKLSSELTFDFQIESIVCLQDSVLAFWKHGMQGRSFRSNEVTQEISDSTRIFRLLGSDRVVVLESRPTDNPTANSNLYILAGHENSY

Structure (SMILES)	Kd
Cn1cc(-c2ccc3nnc(C(F)(F)c4ccc5ncccc5c4)n3n2)cn1 [JNJ-38877605]	> 30 µM (inactive)
COC(=O)[C@@]1(O)C[C@H]2O[C@]1(C)n1c3ccccc3c3c4c(c5c6ccccc6n2c5c31)C(=O)NC4 [K-252A]	2.37 µM (active)
Cc1c(F)cc(C(=O)NC2CC2)cc1-c1ccc(C(=O)NCC(C)(C)C)cn1 [LOSMAPIMOD]	> 30 µM (inactive)
Cn1cc(-c2ccc(F)c(C(F)(F)F)c2)nc1C1CCN(c2ncnc3[nH]ncc23)CC1 [LY-2584702]	> 30 µM (inactive)
O=C(O)[C@]1(Cc2cccc(Nc3nccs3)n2)CC[C@@H](Oc2cccc(Cl)c2F)CC1 [MK-5108]	> 30 µM (inactive)
Cc1ccc(-n2nc(C(C)(C)C)cc2NC(=O)NCc2cc(F)ccc2Oc2ccc3c(cnn3CCO)c2)cc1 [PEXMETINIB]	> 30 µM (inactive)
CNC(=O)c1ccc(C)c(-n2c(C)cc(OCc3ccc(F)cc3F)c(Br)c2=O)c1 [PH-797804]	> 30 µM (inactive)
C=CC(=O)N1CCC(Oc2cc3c(Nc4ccc(Cl)c(Cl)c4F)ncnc3cc2OC)CC1 [POZIOTINIB]	> 30 µM (inactive)
CN(C)C(=O)c1cc2cnc(Nc3ccc(N4CCNCC4)cn3)nc2n1C1CCCC1 [RIBOCICLIB]	> 30 µM (inactive)

molecular target: Maternal embryonic leucine zipper kinase (Homo sapiens, UniProt Q14680)
Sequence (Q14680 whole entry): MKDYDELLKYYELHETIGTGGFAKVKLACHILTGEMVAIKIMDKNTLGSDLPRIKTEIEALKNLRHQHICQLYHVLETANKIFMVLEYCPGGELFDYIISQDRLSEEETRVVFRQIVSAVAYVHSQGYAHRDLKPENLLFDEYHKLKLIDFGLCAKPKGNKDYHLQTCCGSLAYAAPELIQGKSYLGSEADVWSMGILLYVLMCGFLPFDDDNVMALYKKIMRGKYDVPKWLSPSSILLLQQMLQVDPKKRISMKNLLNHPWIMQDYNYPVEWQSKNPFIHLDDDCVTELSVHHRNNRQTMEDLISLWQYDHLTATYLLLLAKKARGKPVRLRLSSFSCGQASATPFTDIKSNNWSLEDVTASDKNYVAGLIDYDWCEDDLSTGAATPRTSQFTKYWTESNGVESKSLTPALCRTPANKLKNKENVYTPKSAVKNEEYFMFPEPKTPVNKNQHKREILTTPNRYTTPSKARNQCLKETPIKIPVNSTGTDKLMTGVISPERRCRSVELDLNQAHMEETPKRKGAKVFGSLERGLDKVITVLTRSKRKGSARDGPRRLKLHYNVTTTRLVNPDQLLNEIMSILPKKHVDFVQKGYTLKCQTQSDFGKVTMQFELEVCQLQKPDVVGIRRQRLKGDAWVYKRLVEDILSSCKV

Structure (SMILES)	Kd
Cn1cc(-c2ccc3nnc(C(F)(F)c4ccc5ncccc5c4)n3n2)cn1 [JNJ-38877605]	> 30 µM (inactive)
COC(=O)[C@@]1(O)C[C@H]2O[C@]1(C)n1c3ccccc3c3c4c(c5c6ccccc6n2c5c31)C(=O)NC4 [K-252A]	0.083 µM (active)
Cc1c(F)cc(C(=O)NC2CC2)cc1-c1ccc(C(=O)NCC(C)(C)C)cn1 [LOSMAPIMOD]	> 30 µM (inactive)
Cn1cc(-c2ccc(F)c(C(F)(F)F)c2)nc1C1CCN(c2ncnc3[nH]ncc23)CC1 [LY-2584702]	> 30 µM (inactive)
O=C(O)[C@]1(Cc2cccc(Nc3nccs3)n2)CC[C@@H](Oc2cccc(Cl)c2F)CC1 [MK-5108]	> 30 µM (inactive)
Cc1ccc(-n2nc(C(C)(C)C)cc2NC(=O)NCc2cc(F)ccc2Oc2ccc3c(cnn3CCO)c2)cc1 [PEXMETINIB]	> 30 µM (inactive)
CNC(=O)c1ccc(C)c(-n2c(C)cc(OCc3ccc(F)cc3F)c(Br)c2=O)c1 [PH-797804]	> 30 µM (inactive)
C=CC(=O)N1CCC(Oc2cc3c(Nc4ccc(Cl)c(Cl)c4F)ncnc3cc2OC)CC1 [POZIOTINIB]	> 30 µM (inactive)
CN(C)C(=O)c1cc2cnc(Nc3ccc(N4CCNCC4)cn3)nc2n1C1CCCC1 [RIBOCICLIB]	> 30 µM (inactive)

molecular target: T3, Serine/threonine-protein kinase Nek9 (Homo sapiens, UniProt Q8TD19)
T3 sequence (Q8TD19 whole entry): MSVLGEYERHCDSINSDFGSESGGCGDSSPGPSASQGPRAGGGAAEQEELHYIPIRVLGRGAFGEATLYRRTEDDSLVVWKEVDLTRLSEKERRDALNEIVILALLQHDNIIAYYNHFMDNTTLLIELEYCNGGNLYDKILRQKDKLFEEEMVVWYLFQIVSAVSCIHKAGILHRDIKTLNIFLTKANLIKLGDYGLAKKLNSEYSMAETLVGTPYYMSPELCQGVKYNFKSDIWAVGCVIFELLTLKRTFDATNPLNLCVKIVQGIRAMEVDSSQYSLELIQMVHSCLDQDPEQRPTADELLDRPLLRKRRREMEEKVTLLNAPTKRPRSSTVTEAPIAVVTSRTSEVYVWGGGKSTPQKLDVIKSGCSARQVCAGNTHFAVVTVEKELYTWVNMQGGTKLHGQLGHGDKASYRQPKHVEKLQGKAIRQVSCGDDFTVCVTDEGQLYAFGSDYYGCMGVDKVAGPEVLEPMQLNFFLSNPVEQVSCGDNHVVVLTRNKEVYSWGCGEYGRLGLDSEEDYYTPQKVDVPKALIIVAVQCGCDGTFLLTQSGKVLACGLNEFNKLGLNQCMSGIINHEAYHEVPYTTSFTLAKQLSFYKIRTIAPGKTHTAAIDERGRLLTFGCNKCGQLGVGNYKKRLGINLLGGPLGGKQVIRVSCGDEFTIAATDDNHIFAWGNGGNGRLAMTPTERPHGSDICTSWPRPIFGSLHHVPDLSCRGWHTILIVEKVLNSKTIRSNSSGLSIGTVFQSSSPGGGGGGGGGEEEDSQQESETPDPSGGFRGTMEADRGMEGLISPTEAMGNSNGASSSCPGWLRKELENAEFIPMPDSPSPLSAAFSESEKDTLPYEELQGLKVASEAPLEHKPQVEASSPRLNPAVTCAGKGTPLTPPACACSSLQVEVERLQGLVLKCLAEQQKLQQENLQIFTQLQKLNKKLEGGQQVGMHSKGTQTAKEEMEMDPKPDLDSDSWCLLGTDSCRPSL

Structure (SMILES)	Kd
Cn1cc(-c2ccc3nnc(C(F)(F)c4ccc5ncccc5c4)n3n2)cn1 [JNJ-38877605]	> 30 µM (inactive)
COC(=O)[C@@]1(O)C[C@H]2O[C@]1(C)n1c3ccccc3c3c4c(c5c6ccccc6n2c5c31)C(=O)NC4 [K-252A]	> 30 µM (inactive)
Cc1c(F)cc(C(=O)NC2CC2)cc1-c1ccc(C(=O)NCC(C)(C)C)cn1 [LOSMAPIMOD]	> 30 µM (inactive)
Cn1cc(-c2ccc(F)c(C(F)(F)F)c2)nc1C1CCN(c2ncnc3[nH]ncc23)CC1 [LY-2584702]	> 30 µM (inactive)
O=C(O)[C@]1(Cc2cccc(Nc3nccs3)n2)CC[C@@H](Oc2cccc(Cl)c2F)CC1 [MK-5108]	> 30 µM (inactive)
Cc1ccc(-n2nc(C(C)(C)C)cc2NC(=O)NCc2cc(F)ccc2Oc2ccc3c(cnn3CCO)c2)cc1 [PEXMETINIB]	> 30 µM (inactive)
CNC(=O)c1ccc(C)c(-n2c(C)cc(OCc3ccc(F)cc3F)c(Br)c2=O)c1 [PH-797804]	> 30 µM (inactive)
C=CC(=O)N1CCC(Oc2cc3c(Nc4ccc(Cl)c(Cl)c4F)ncnc3cc2OC)CC1 [POZIOTINIB]	> 30 µM (inactive)
CN(C)C(=O)c1cc2cnc(Nc3ccc(N4CCNCC4)cn3)nc2n1C1CCCC1 [RIBOCICLIB]	> 30 µM (inactive)

molecular target: Structural maintenance of chromosomes protein 2 (Homo sapiens, UniProt O95347)
Sequence (O95347 whole entry): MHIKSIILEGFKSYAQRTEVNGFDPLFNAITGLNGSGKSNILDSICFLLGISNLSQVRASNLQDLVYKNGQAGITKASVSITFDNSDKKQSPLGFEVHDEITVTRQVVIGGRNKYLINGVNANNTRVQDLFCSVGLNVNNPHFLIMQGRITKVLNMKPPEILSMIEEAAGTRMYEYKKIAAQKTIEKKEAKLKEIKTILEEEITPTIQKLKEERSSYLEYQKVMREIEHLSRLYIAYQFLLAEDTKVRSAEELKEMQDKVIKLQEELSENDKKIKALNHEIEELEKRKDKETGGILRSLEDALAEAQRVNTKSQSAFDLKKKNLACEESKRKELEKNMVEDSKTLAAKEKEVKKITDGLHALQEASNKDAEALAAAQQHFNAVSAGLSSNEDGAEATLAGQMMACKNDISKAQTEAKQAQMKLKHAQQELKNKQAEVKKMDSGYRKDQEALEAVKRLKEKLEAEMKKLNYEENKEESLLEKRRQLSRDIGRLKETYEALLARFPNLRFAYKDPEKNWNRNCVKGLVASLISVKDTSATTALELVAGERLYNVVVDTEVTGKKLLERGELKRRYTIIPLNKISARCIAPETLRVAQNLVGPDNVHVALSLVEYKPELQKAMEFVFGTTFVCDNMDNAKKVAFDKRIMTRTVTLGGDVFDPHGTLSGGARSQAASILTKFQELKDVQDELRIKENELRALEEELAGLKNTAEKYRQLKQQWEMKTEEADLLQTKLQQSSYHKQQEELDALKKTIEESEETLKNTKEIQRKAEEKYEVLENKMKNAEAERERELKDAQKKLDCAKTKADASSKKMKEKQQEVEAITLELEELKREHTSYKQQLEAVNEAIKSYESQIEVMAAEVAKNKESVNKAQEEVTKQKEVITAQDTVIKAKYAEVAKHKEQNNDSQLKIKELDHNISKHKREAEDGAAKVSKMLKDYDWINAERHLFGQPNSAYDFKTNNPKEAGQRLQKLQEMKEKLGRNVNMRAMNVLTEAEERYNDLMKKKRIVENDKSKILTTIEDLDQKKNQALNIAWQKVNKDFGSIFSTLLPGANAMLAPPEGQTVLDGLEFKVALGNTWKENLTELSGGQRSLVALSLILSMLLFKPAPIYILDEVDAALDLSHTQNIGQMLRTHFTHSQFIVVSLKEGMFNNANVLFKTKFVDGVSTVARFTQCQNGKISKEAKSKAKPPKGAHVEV

Structure (SMILES)	Kd
Cn1cc(-c2ccc3nnc(C(F)(F)c4ccc5ncccc5c4)n3n2)cn1 [JNJ-38877605]	> 30 µM (inactive)
COC(=O)[C@@]1(O)C[C@H]2O[C@]1(C)n1c3ccccc3c3c4c(c5c6ccccc6n2c5c31)C(=O)NC4 [K-252A]	> 30 µM (inactive)
Cc1c(F)cc(C(=O)NC2CC2)cc1-c1ccc(C(=O)NCC(C)(C)C)cn1 [LOSMAPIMOD]	> 30 µM (inactive)
Cn1cc(-c2ccc(F)c(C(F)(F)F)c2)nc1C1CCN(c2ncnc3[nH]ncc23)CC1 [LY-2584702]	> 30 µM (inactive)
O=C(O)[C@]1(Cc2cccc(Nc3nccs3)n2)CC[C@@H](Oc2cccc(Cl)c2F)CC1 [MK-5108]	> 30 µM (inactive)
Cc1ccc(-n2nc(C(C)(C)C)cc2NC(=O)NCc2cc(F)ccc2Oc2ccc3c(cnn3CCO)c2)cc1 [PEXMETINIB]	> 30 µM (inactive)
CNC(=O)c1ccc(C)c(-n2c(C)cc(OCc3ccc(F)cc3F)c(Br)c2=O)c1 [PH-797804]	> 30 µM (inactive)
C=CC(=O)N1CCC(Oc2cc3c(Nc4ccc(Cl)c(Cl)c4F)ncnc3cc2OC)CC1 [POZIOTINIB]	> 30 µM (inactive)
CN(C)C(=O)c1cc2cnc(Nc3ccc(N4CCNCC4)cn3)nc2n1C1CCCC1 [RIBOCICLIB]	> 30 µM (inactive)
